Measurements from patent US7326768B2, “Goodpasture antigen-binding protein isoforms and protein misfolded-mediated disorders” (priority 2003, dated 2008).
“Also recorded” adds a separate entry of the source. Ends that are not written are not given here.

Key:
[1] = test system: α3(IV)NC1-expressing cells (HEK293); assay: α3(IV)NC1 conformer production in cultured cells (Western blot of culture media); type: cell-based, human; conditions: synthetic peptides 100-200 μM, organic compounds 5-50 μM, 24-48 h
[2] = test system: CaM kinase II; conditions: known; cited from earlier work
[3] = target: T1, recombinant human GPBP (Homo sapiens, UniProt Q9Y5P4); assay: In vitro phosphorylation: GPBP kinase activity / autophosphorylation; conditions: for GPBP kinase activity in vitro (autophosphorylation): modulators at 200 μM, 10 min autophosphorylation reaction
T1 sequence (Q9Y5P4 1-624): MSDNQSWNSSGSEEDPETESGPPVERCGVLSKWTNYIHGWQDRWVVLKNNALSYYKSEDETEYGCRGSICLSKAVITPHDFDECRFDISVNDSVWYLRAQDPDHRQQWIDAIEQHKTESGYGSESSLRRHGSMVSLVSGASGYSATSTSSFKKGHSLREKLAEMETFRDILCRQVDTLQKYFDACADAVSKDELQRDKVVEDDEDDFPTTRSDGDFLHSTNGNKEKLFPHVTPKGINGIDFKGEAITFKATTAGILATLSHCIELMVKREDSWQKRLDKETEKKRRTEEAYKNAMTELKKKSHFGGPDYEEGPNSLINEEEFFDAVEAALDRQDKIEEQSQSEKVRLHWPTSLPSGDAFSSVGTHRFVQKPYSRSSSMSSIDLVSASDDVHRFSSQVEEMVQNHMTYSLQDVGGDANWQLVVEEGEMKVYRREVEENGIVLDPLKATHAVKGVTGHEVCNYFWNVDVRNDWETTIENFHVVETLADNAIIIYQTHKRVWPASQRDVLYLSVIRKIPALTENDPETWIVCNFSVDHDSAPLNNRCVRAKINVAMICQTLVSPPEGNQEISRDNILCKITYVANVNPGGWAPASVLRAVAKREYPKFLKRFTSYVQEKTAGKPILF

[4] = target: T1, recombinant human GPBP; assay: Far Western blot with recombinant GPBP; type: binding; set-up: FLAG; made in house; host or cells: yeast; conditions: 1 μg peptide
[5] = test system: NZW mice; assay: Degenerative glomerulopathy in NZW mice (histochemical studies of kidney); type: in vivo
[6] = test system: CaM kinase II; assay: CaM kinase II inhibition; type: biochemical
[7] = NZW treated with DAB-Am-4 and peptide

GPBP kinase activity in vitro (autophosphorylation) [3] | binding of GPBP to the peptide [4] | synergistic inhibitory effect on GPBP kinase activity ([3]; combined with Ca^2+CaM) | synergistic inhibitory effect on GPBP kinase activity ([3]; combined with KN62) | inhibition of CaM kinase II [6] | Molecule | α3(IV)NC1 conformer production in cultured cells [1] | relative inhibitory potency for CaM kinase II [2] | amyloid-like matter formation (thioflavin T or Congo red staining) [5, 7] | fibrotic reaction in glomeruli [5, 7] | fuchsinophilic material at the subendothelial space [5, 7] | material deposited in the glomerulus of suspected collagenous nature ([5]; NZW treated with DAB-Am-4 and peptide 20 μg/g i.p.)
efficiently impaired | – | – | – | – | COc1ccc(S(=O)(=O)N(CCO)c2ccccc2CN(C)CC=Cc2ccc(Cl)cc2)cc1 [KN93, 2-[N-(2-hydroxyethyl)-N-(4-methoxybenzenesulfonyl)]amino-N-(4-chlorocinnamyl)-N-methylbenzylamine] | reduced cell conformer production | more potent inhibitor than KN62 | – | – | – | –
– | did not display binding capacity | – | – | – | Ac-KGKPGDTGPPAAGAVMRGFVFT-NH2 [GPpep1bov] | – | – | – | – | – | –
efficiently inhibited | – | no cooperative inhibitory effect | no cooperative inhibitory effect | efficiently inhibited | LATLSHCIELMVKR (not fully specified (N-terminus, C-terminus)) [Q2] | reduction in conformer production; also recorded: efficiently inhibits; also recorded: more effective inhibiting cell conformer production than Q4 | – | efficiently inhibited amyloid-like matter formation | glomeruli virtually devoid of fibrotic reaction | unable to reduce | sharply reduced
